This note sets out measurements from article PMC4646021, “Streptococcus pneumoniae NanC” (The Journal of Biological Chemistry, 2015).

For test [1], the target named is T1, NanC (scheme A) (Streptococcus pneumoniae, UniProt A0A0H2UQE4).
T1 construct: gene SP_1326; residues 28-740, signal peptide removed (CBM plus catalytic domain); pET21b, E. coli Rosetta (DE3), nickel column; 82 kDa
Kind of test: X-ray crystal structure, soak. It counts as binding.

Test [2] has as its target T2, NanC CBM (Streptococcus pneumoniae, UniProt A0A0H2UQE4).
T2 construct: gene SP_1326; purified by scheme A
Kind of test: isothermal titration calorimetry. It counts as binding. Particulars: 20 mM Tris pH 8, 50 mM NaCl; stoichiometry fixed 1:1; CBM site.

T2 sequence (A0A0H2UQE4 entry or part of it): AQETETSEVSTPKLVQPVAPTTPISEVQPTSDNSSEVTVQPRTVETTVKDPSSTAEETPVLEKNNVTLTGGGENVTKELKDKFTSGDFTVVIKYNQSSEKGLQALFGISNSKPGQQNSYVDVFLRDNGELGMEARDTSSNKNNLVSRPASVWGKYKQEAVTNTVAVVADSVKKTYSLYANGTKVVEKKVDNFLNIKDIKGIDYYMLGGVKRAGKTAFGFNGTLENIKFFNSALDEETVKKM
T1 sequence (A0A0H2UQE4 entry or part of it): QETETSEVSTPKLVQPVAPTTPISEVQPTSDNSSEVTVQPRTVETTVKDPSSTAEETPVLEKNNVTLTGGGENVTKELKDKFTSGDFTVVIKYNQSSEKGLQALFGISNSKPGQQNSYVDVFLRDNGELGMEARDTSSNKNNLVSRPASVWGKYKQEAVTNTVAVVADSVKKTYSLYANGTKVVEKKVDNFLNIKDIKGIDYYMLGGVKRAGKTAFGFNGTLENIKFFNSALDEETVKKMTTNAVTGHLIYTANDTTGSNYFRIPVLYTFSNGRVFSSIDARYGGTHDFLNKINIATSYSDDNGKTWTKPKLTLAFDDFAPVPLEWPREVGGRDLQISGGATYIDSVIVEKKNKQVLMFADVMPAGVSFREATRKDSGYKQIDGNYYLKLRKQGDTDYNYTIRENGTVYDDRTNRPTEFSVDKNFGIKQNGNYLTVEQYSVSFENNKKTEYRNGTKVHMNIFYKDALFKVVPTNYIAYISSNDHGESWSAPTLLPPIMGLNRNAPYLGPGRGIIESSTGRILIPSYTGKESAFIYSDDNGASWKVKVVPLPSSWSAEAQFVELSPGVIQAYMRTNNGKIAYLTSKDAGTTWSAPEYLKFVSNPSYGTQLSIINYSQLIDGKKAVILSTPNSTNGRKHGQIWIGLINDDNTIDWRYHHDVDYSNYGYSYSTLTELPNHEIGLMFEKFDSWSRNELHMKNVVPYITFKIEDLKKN

As for `CC(=O)N[C@H]1[C@H]([C@H](O)[C@H](O)CO)OC(F)(C(=O)O)C(F)[C@@H]1O` (stereo partly shown) [2,3F-Neu5Ac], the “X-ray crystal structure, soak” value in test [1] (covalent, active site Tyr-695 adduct 3F-β-Neu5Ac, 5 mM, 45 min soak, intact compound also in CBM site) is 3F-β-Neu5Ac was covalently bound to Tyr-695 in an unstrained.

In test [2], `CC(=O)N[C@H]1[C@H]([C@H](O)[C@H](O)CO)O[C@@](O[C@H]2[C@@H](O)[C@@H](CO)O[C@@H](O[C@H]3[C@H](O)[C@@H](O)C(O)O[C@@H]3CO)[C@@H]2O)(C(=O)O)C[C@@H]1O` (stereo partly shown) [3′SL] came in with an equilibrium dissociation constant (Kd) of 1.48 mM.

The compound `CC(=O)N[C@H]1[C@H]([C@H](O)[C@H](O)CO)O[C@@](OC[C@H]2O[C@@H](O[C@H]3[C@H](O)[C@@H](O)C(O)O[C@@H]3CO)[C@H](O)[C@@H](O)[C@H]2O)(C(=O)O)C[C@@H]1O` (stereo partly shown) [6′SL] returned a Kd in test [2] of 1.6 mM.

With `CCC(CC)O[C@@H]1C=C(C(=O)O)C[C@H](N)[C@H]1NC(C)=O` [OC], in test [1] (catalytic active site, 20 mM, 5 min soak), the “X-ray crystal structure, soak” value is listed as “OC binds in the NanC active site”.
